Columns and labels:
Type in all cases: cell-based
[1] = molecular target: T1, fructose 1,6-bisphosphatase (FBPase-1) (Rattus norvegicus, UniProt P19112); experiment: phosphate release from fructose […],6-bisphosphate in rat liver cytosolic fraction; […] (incomplete) inhibition at […]
T1 construct: gene Fbp1; rat liver cytosolic fraction
T1 sequence (P19112 2-363): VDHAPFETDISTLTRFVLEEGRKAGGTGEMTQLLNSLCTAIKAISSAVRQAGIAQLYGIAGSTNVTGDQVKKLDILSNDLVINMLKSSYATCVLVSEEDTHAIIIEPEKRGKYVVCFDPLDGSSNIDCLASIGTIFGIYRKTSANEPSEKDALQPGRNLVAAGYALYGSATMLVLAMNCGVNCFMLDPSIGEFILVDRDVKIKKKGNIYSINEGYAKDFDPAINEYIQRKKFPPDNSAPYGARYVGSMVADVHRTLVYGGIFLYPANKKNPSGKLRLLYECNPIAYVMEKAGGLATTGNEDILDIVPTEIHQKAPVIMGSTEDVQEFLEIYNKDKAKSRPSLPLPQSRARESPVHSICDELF

[2] = molecular target: T2, phosphoenolpyruvate carboxykinase (PEPCK) (Rattus norvegicus, UniProt P07379); experiment: enzyme activity in rat liver cytosolic fraction, coupled to malate dehydrogenase (NADH oxidation, […] nm); […] inhibition at […]
T2 construct: gene Pck1; rat liver cytosolic fraction
T2 sequence (P07379 whole entry): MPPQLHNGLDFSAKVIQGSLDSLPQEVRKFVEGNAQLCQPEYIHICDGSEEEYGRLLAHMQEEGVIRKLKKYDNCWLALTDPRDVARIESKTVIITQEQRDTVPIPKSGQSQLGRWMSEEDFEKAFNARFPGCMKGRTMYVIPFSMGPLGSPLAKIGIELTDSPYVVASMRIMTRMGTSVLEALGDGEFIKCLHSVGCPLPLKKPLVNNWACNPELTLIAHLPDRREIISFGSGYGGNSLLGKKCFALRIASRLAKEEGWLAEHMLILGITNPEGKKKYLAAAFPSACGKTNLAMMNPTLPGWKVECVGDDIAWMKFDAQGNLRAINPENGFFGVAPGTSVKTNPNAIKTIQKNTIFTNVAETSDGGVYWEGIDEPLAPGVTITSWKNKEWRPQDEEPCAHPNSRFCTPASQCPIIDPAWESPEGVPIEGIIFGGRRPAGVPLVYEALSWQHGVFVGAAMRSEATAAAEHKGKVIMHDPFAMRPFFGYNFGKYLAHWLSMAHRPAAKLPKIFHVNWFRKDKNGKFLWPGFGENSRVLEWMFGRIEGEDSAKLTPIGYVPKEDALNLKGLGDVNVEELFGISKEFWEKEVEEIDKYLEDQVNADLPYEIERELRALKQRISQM

[3] = molecular target: T3, glucose 6-phosphatase (G6Pase) (Rattus norvegicus, UniProt P43428); experiment: phosphate release from glucose 6-phosphate in isolated rat liver microsomes; […] inhibition at […]
T3 construct: gene G6pc1; isolated rat liver microsomes
T3 sequence (P43428 1-357): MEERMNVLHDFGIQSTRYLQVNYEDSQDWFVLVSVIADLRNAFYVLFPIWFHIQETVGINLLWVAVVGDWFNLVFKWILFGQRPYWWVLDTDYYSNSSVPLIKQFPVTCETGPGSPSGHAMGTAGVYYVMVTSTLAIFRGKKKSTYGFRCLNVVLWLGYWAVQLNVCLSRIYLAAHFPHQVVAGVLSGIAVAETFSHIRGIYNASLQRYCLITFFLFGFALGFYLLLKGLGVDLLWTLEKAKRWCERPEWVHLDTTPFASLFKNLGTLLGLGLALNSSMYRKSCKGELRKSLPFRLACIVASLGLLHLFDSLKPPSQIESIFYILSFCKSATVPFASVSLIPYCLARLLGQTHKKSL

What does the source list for COc1cc2c(cc1O)C[C@H]1c3c(cc(O)c(OC)c3-2)CCN1C [boldine, 1,10-dimethoxy-2,9-dihydroxy aporphine]?
inhibition at 200 µM [1]: 42%; inhibition at 200 µM [2]: 49%; inhibition at 200 µM [3]: 35%

Source: publication PMC10089784, “Inhibition of Gluconeogenesis by Boldine in the Perfused Liver: Therapeutical Implication for Glycemic Control” (International Journal of Hepatology, 2023)
